In US11753418B2, “Compounds for the modulation of Myc activity” (Syros Pharmaceuticals, Inc., priority 2015, dated 2023):
pIC50: −log10 of the molar value. Counter-ions that a name gives are not always drawn.

What was measured:
c-Myc/Max/Ebox DNA = target: T1, c-Myc/Max/Ebox DNA (Homo sapiens, UniProt P01106); experiment: c-Myc/Max/Ebox DNA AlphaScreen Assay; format: binding; settings: free c-Myc 20 nM, his6-Max 5 nM, biotinylated Ebox oligo 10 nM, 2 hour incubation
T1 construct: his6 (cleaved yes)
Procedure: Compounds of the invention were assayed for c-Myc/Max/EBox activity as described in the following protocol. Human his6-c-Myc and his6-Max were used with biotinylated DNA containing a single Ebox sequence (biotin[…]) purchased from MWG Operon. Free c-Myc was generated from his6-c-Myc through thrombin cleavage of the his6 tag. For 384-well plate assays, 10 μL of a 2× solution of free c-Myc (20 nM final), Ni^2+ coated Acceptor Beads (25 μg/ml final), and biotinylated Ebox oligo (10 nM final) were added to 384-well plates with a Biotek EL406 liquid handler. 50 nL of compounds from stock plates were added by pin transfer using a Janus Workstation (PerkinElmer), allowing the compounds to interact with c-Myc prior to c-Myc binding with Max. In the current assay, DMSO was not allowed to exceed 2% v/v of the assay. 10 μl of 2× master mix containing streptavidin-coated donor beads (25 μg/ml final) and his6-Max (5 nM) were added. AlphaScreen measurements were performed on an Envision plate reader (PerkinElmer) utilizing the manufacturer's protocol.
Both master mixes were made in room temperature assay buffer (50 mM HEPES, 150 mM NaCl, 0.2% w/v BSA, 0.02% w/v Tween20, 40 μg/ml glycogen, 500 μM DTT, pH 8.0, wherein both DTT and glycogen were added fresh). Alpha beads were added to respective master solutions. All subsequent steps were performed in low light conditions. Solution 1: 2× solution of components with final concentrations of c-Myc Ni-coated Acceptor Beads (25 μg/ml), and biotinylated Ebox oligo (10 nM). Solution 2: 2× solution of streptavidin-coated donor beads (25 μg/ml final) and his6-Max […]. Solution 1 was added to 384-well plate (AlphaPlate-384, PerkinElmer) with Biotek EL406 liquid handler and the plates were centrifuged very briefly. 50 nL of compounds from stock plates were added by pin transfer using a Janus Workstation. Solution 2 (10 μL) was added with the liquid handler. Plates were sealed with foil to block light exposure and prevent evaporation. Plates were very briefly centrifuged followed by 2 hour incubation. AlphaScreen measurements were performed on an Envision 2104 utilizing the manufacturer's protocol. Excitation was at 680 nm for donor bead release of singlet oxygen and emission was read with a bandpass filter from 520-620 nm. Glycogen: Roche Diagnostics #10901393001. Plate 1536: Perkin Elmer, 6004350. Plate 384: Perkin Elmer, 6005350. Nickel-His Alpha Beads: 6760619R. The data from this assay are summarized in Table 3 below (Myc/Max/DNA Activity).

[1] = test system: human small lung cancer cell line H2171; experiment: Cell Viability Assay (ATPlite); format: cell-based; settings: NCI-H2171, 72 h, H2171 cells, incubated for three days, ATPlite readout
Procedure: Compounds of the invention were assayed for cell viability using the human small lung cancer cell line H2171 as described in the following protocol. Cells were counted and adjusted to 20,000 cells/mL. Using a Biotek EL406, 50 μL of cells in media were distributed into 384 well white plates from Thermo. Immediately after plating, compound in DMSO was distributed to plates. Compounds were added to plates using a 50 nL 384 well pin transfer manifold on a Janus workstation. Stocks were arrayed in 10 point dose response in DMSO stock in 384 well Greiner compound plates. After the addition of compounds, plates were incubated for three days in a 37° C. incubator. Cell viability was read out using ATPlite from Perkin Elmer. Lyophilized powder was resuspended in lysis buffer and diluted 1:2 with deionized water. 25 μL of this solution was added to each well using the Biotek liquid handler. Plates were incubated for 15 minutes at room temperature before signal was read on an Envision Plate Reader. The data from this assay are summarized in Table 3 below (H2171 activity).

T1 sequence (P01106 whole entry): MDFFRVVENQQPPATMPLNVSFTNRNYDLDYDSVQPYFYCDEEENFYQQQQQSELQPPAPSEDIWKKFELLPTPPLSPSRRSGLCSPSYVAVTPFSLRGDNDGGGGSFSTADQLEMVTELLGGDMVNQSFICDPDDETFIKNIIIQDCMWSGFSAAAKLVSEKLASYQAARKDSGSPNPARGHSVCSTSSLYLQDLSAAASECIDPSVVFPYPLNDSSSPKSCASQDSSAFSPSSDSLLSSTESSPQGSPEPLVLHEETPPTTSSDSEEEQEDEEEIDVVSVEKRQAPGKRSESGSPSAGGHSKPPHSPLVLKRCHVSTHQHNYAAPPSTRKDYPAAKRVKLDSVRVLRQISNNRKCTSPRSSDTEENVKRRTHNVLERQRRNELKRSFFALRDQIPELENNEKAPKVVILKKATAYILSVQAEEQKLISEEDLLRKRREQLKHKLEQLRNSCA

`CC(=O)Nc1sc2c(c1-c1nc3cnccc3s1)CCC(N)C2` (centres unmarked) [Compound 113, N-(6-amino-3-(thiazolo[4,5-c]pyridin-2-yl)-4,5,6,7-tetrahydrobenzo[b]thiophen-2-yl)acetamide] was tested, and the pIC50 (c-Myc/Max/Ebox DNA) was 5.30 to 6.30 and the pIC50 [1] was over 6.30.

Work on `CC(=O)Nc1sc2c(c1-c1nc3cnccc3s1)CCN(C)C2` [Compound 114, N-(6-methyl-3-(thiazolo[4,5-c]pyridin-2-yl)-4,5,6,7-tetrahydrothieno[2,3-c]pyridin-2-yl)acetamide] yielded a pIC50 (c-Myc/Max/Ebox DNA) of 5.30 to 6.30 and a pIC50 [1] of 5.30 to 6.30.

Molecule `CCC(C)NCCC(=O)Nc1sc2c(c1-c1nc3cnccc3s1)CCN(C(C)C)C2` (centres unmarked) [Compound 116, 3-(sec-butylamino)-N-(6-isopropyl-3-(thiazolo[4,5-c]pyridin-2-yl)-4,5,6,7-tetrahydrothieno[2,3-c]pyridin-2-yl)propanamide dihydrochloride] has a pIC50 (c-Myc/Max/Ebox DNA) of over 6.30 and a pIC50 [1] of over 6.30.

Molecule `CCN1C(C)Cc2c(sc(NC(C)=O)c2-c2nc3cnccc3s2)C1C` (centres unmarked) [Compound 117, N-(6-ethyl-5,7-dimethyl-3-(thiazolo[4,5-c]pyridin-2-yl)-4,5,6,7-tetrahydrothieno[2,3-c]pyridin-2-yl)acetamide] has a pIC50 (c-Myc/Max/Ebox DNA) of 5.30 to 6.30 and a pIC50 [1] of 5.30 to 6.30.

`CC(=O)Nc1sc2c(c1-c1nc3c(C)nccc3s1)CCNC2` [Compound 118, N-(3-(4-methylthiazolo[4,5-c]pyridin-2-yl)-4,5,6,7-tetrahydrothieno[2,3-c]pyridin-2-yl)acetamide] showed a pIC50 (c-Myc/Max/Ebox DNA) of over 6.30 and a pIC50 [1] of over 6.30.

`CCN1[C@H](C)Cc2c(sc(NC(C)=O)c2-c2nc3cnccc3s2)[C@H]1C` [Compound 119, N-((5R,7R)-6-ethyl-5,7-dimethyl-3-(thiazolo[4,5-c]pyridin-2-yl)-4,5,6,7-tetrahydrothieno[2,3-c]pyridin-2-yl)acetamide] gave a pIC50 (c-Myc/Max/Ebox DNA) of over 6.30 and a pIC50 [1] of over 6.30.

With `CC[C@H](C)NCCC(=O)Nc1sc2c(c1-c1nc3cnccc3s1)CCNC2` [Compound 122, (S)-3-(sec-butylamino)-N-(3-(thiazolo[4,5-c]pyridin-2-yl)-4,5,6,7-tetrahydrothieno[2,3-c]pyridin-2-yl)propanamide] the pIC50 (c-Myc/Max/Ebox DNA) was over 6.30 and the pIC50 [1] was over 6.30.

For `COCC(NCCC(=O)Nc1sc2c(c1-c1nc3cnccc3s1)CCNC2)C(C)C` (centres unmarked) [Compound 134], the pIC50 (c-Myc/Max/Ebox DNA) was over 6.30 and the pIC50 [1] was 5.30 to 6.30.

Work on `O=C(CCN[C@@H]1C[C@H]2CNC[C@H]2C1)Nc1sc2c(c1-c1nc3cnccc3s1)CCNC2` [Compound 153] yielded a pIC50 (c-Myc/Max/Ebox DNA) of over 6.30 and a pIC50 [1] of over 6.30.

Work on `O=C(CCN1CC(C(=O)O)C1)Nc1sc2c(c1-c1nc3cnccc3s1)CCNC2` [Compound 172] yielded a pIC50 (c-Myc/Max/Ebox DNA) of over 6.30 and a pIC50 [1] of over 6.30.

`O=C(CCN[C@H]1CC[C@H](O)C1)Nc1sc2c(c1-c1nc3cnccc3s1)CCNC2` [Compound 176] showed a pIC50 (c-Myc/Max/Ebox DNA) of over 6.30 and a pIC50 [1] of over 6.30.

With `O=C(CCN[C@H]1CC[C@]2(CCC(=O)N2)CC1)Nc1sc2c(c1-c1nc3cnccc3s1)CCNC2` [Compound 177] the pIC50 (c-Myc/Max/Ebox DNA) was over 6.30 and the pIC50 [1] was over 6.30.

With `O=C(CCN1CCCCC12CNC2)Nc1sc2c(c1-c1nc3cnccc3s1)CCNC2` [Compound 183] the pIC50 (c-Myc/Max/Ebox DNA) was 5.30 to 6.30 and the pIC50 [1] was over 6.30.

`CN(CCCn1ccnc1)CCC(=O)Nc1sc2c(c1-c1nc3cnccc3s1)CCNC2` [Compound 190] showed a pIC50 (c-Myc/Max/Ebox DNA) of over 6.30 and a pIC50 [1] of over 6.30.

With `Cn1cncc1CNCCC(=O)Nc1sc2c(c1-c1nc3cnccc3s1)CCNC2` [Compound 203] the pIC50 (c-Myc/Max/Ebox DNA) was over 6.30 and the pIC50 [1] was 5.30 to 6.30.

With `O=C(CCN1CCCC12CNC2)Nc1sc2c(c1-c1nc3cnccc3s1)CCNC2` [Compound 206] the pIC50 (c-Myc/Max/Ebox DNA) was over 6.30 and the pIC50 [1] was 5.30 to 6.30.

`COCCNCCC(=O)Nc1sc2c(c1-c1nc3cnccc3s1)CCNC2` [Compound 216, 3-((2-methoxyethyl)amino)-N-(3-(thiazolo[4,5-c]pyridin-2-yl)-4,5,6,7-tetrahydrothieno[2,3-c]pyridin-2-yl)propanamide] was tested, and the pIC50 (c-Myc/Max/Ebox DNA) was over 6.30 and the pIC50 [1] was over 6.30.

With `CC[C@@H](C)NCCC(=O)Nc1sc2c(c1-c1nc3cnccc3s1)CCNC2` [Compound 217, (R)-3-(sec-butylamino)-N-(3-(thiazolo[4,5-c]pyridin-2-yl)-4,5,6,7-tetrahydrothieno[2,3-c]pyridin-2-yl)propanamide] the pIC50 (c-Myc/Max/Ebox DNA) was over 6.30 and the pIC50 [1] was over 6.30.

`O=C(CCNCCc1cccnc1)Nc1sc2c(c1-c1nc3cnccc3s1)CCNC2` [Compound 218, 3-((2-(pyridin-3-yl)ethyl)amino)-N-(3-(thiazolo[4,5-c]pyridin-2-yl)-4,5,6,7-tetrahydrothieno[2,3-c]pyridin-2-yl)propanamide] gave a pIC50 (c-Myc/Max/Ebox DNA) of over 6.30 and a pIC50 [1] of over 6.30.

`CN(C)CCC(=O)Nc1sc2c(c1-c1nc3cnccc3s1)CCNC2` [Compound 219, 3-(dimethylamino)-N-(3-(thiazolo[4,5-c]pyridin-2-yl)-4,5,6,7-tetrahydrothieno[2,3-c]pyridin-2-yl)propanamide] showed a pIC50 (c-Myc/Max/Ebox DNA) of over 6.30 and a pIC50 [1] of over 6.30.

Work on `CC(C)NCCC(=O)Nc1sc2c(c1-c1nc3ncccc3s1)CCNC2` [Compound 220, 3-(isopropylamino)-N-(3-(thiazolo[4,5-b]pyridin-2-yl)-4,5,6,7-tetrahydrothieno[2,3-c]pyridin-2-yl)propanamide dihydrochloride] yielded a pIC50 (c-Myc/Max/Ebox DNA) of over 6.30 and a pIC50 [1] of over 6.30.

Molecule `O=C(CCNC1CNC1)Nc1sc2c(c1-c1nc3cnccc3s1)CCNC2` [Compound 223, 3-(Azetidin-3-ylamino)-N-(3-(thiazolo[4,5-c]pyridin-2-yl)-4,5,6,7-tetrahydrothieno[2,3-c]pyridin-2-yl)propanamide] has a pIC50 (c-Myc/Max/Ebox DNA) of over 6.30 and a pIC50 [1] of over 6.30.

Molecule `CNCCC(=O)Nc1sc2c(c1-c1nc3cnccc3s1)CCNC2` [Compound 224, 3-(Methylamino)-N-(3-(thiazolo[4,5-c]pyridin-2-yl)-4,5,6,7-tetrahydrothieno[2,3-c]pyridin-2-yl)propanamide] has a pIC50 (c-Myc/Max/Ebox DNA) of over 6.30 and a pIC50 [1] of 5.30 to 6.30.

`Cc1cc2sc(-c3c(NC(=O)CCNC(C)C)sc4c3CCNC4)nc2c(C)n1` [Compound 225, N-(3-(4,6-Dimethylthiazolo[4,5-c]pyridin-2-yl)-4,5,6,7-tetrahydrothieno[2,3-c]pyridin-2-yl)-3-(isopropylamino)propanamide dihydrochloride] showed a pIC50 (c-Myc/Max/Ebox DNA) of over 6.30 and a pIC50 [1] of over 6.30.

Molecule `CC[C@H](C)NCCC(=O)Nc1sc2c(c1-c1nc3c(C(F)F)nccc3s1)CCNC2` [Compound 226] has a pIC50 (c-Myc/Max/Ebox DNA) of over 6.30 and a pIC50 [1] of over 6.30.

Work on `COCCNCCC(=O)Nc1sc2c(c1-c1nc3c(C)nc(C)cc3s1)CCNC2` [Compound 227, N-(3-(4,6-Dimethylthiazolo[4,5-c]pyridin-2-yl)-4,5,6,7-tetrahydrothieno[2,3-c]pyridin-2-yl)-3-((2-methoxyethyl)amino)propanamide dihydrochloride] yielded a pIC50 (c-Myc/Max/Ebox DNA) of over 6.30 and a pIC50 [1] of over 6.30.

`CC(=O)Nc1sc2c(c1-c1nc3c(C)nc(C)cc3s1)CCNC2` [Compound 228, N-(3-(4,6-dimethylthiazolo[4,5-c]pyridin-2-yl)-4,5,6,7-tetrahydrothieno[2,3-c]pyridin-2-yl)acetamide hydrochloride] showed a pIC50 (c-Myc/Max/Ebox DNA) of over 6.30 and a pIC50 [1] of over 6.30.

In the case of `CCN1Cc2sc(NC(C)=O)c(-c3nc4cnccc4s3)c2C[C@H]1C` [Compound 230, (R)—N-(6-ethyl-5-methyl-3-(thiazolo[4,5-c]pyridin-2-yl)-4,5,6,7-tetrahydrothieno[2,3-c]pyridin-2-yl)acetamide], the pIC50 (c-Myc/Max/Ebox DNA) was 5.30 to 6.30 and the pIC50 [1] was over 6.30.
